{"source": "patent US6544992B1", "about": "“Urotensin-II receptor antagonists” (SmithKline Beecham Corporation, priority 1999, dated 2003)", "key": {"human and rat GPR-14": {"test_system": "human and rat GPR-14", "assay": "Radioligand binding, [125I] h-U-II on HEK-293 cell membranes", "conditions": "radioligand binding assay; species of GPR-14 not given", "experimental": "HEK-293 cell membranes containing stable cloned human and rat GPR-14 (20 ug/assay) were incubated with 200 pM [125I] h-U-II (200 Ci/mmol^−1 in the presence of increasing concentrations of test compounds in DMSO (0.1 nM to 10 uM), in a final incubation volume of 200 ul (20 mM Tris-HCl, 5 mM MgCl2). Incubation was done for 30 minutes at room temperature followed by filtration GF/B filters with Brandel cell harvester. ^125I labeled U-II binding was quantitated by gamma counting. Nonspecific binding was defined by ^125I U-II binding in the presence of 100 nM of unlabeled human U-II. Analysis of the data was performed by nonlinear least square fitting."}, "rat-isolated aorta": {"test_system": "rat-isolated aorta", "conditions": "cited from earlier work"}}, "data": [{"smiles": "O=C(NC1CCN(Cc2ccc(OCCN3CCCC3)c3ccccc23)C1)c1ccc(Cl)c(Cl)c1", "note": "(centres unmarked) [Example 13]", "values": [{"measurement": "Ki", "setting": "human and rat GPR-14", "value": 360, "unit": "nM"}]}, {"smiles": "CC(C)[C@H](NC(=O)[C@@H]1CSSC[C@H](NC(=O)[C@H](CC(=O)O)NC(=O)[C@@H]2CCCN2C(=O)[C@@H](NC(=O)[C@@H](N)CCC(=O)O)[C@@H](C)O)C(=O)N[C@@H](Cc2ccccc2)C(=O)N[C@@H](Cc2c[nH]c3ccccc23)C(=O)N[C@@H](CCCCN)C(=O)N[C@@H](Cc2ccc(O)cc2)C(=O)N1)C(=O)O", "note": "[Human Urotensin-II]", "values": [{"measurement": "contractile activity", "setting": "rat-isolated aorta", "value": "most potent contractile agonist identified to date"}]}]}
